Test: in vitro
Details: human, hela cells

Row | SMILES | viability at 28.5 h, 10 µM (% viability) | other results
1 | Cc1ccc(NC(=O)C2CN(S(=O)(=O)c3ccccc3)CCN2S(=O)(=O)c2ccccc2)c(C)c1 (stereo not shown) [CBK262693] | 83.8% | –
2 | Cc1nc(CCNC(=O)N(Cc2cnn(C)c2)C2CC2)nc2c1CCC2 [CBK307650] | 86.1% | –
3 | CN1CCN(c2nc(-c3ccco3)cnc2N)CC1 [CBK063449] | 109% | –
4 | Cc1ccc(C(=O)N(Cc2nc(-c3ccc(Cl)cc3)no2)C(C)C)cc1[N+](=O)[O-] [CBK268422] | 98.7% | –
5 | O=C(CSCc1nc(O)c2c3c(sc2n1)CCCC3)NC1CCCCC1 [CBK265684] | 83.5% | –
6 | CC(C)Nc1cc(SCc2ccc(Cl)c(Cl)c2)ncn1 [CBK103665] | 85.1% | –
7 | COc1cc(Cn2c(-c3ccc(O)c(OC)c3)nc3ccccc32)ccc1O [CBK291138] | 100% | –
8 | Cc1ccccc1Nc1nc(N)nc(CN2CCOC3CCCC32)n1 (stereo not shown) [CBK305181] | 97.6% | –
9 | CC(C(=O)N(CCC#N)Cc1cccnc1)n1cnc2ccccc21 (stereo not shown) [CBK304127] | 92.5% | –
10 | O=C(O)C1CCN(C(=O)CCn2ccc3cc(Br)ccc32)CC1 [CBK286617] | 105% | –
11 | Cc1nccn1CCC1CCN(C(=O)CC2CCCCO2)CC1 (stereo not shown) [CBK281974] | 84.3% | –
12 | Cc1cccc(-c2n[nH]c(=S)n2CCC(=O)Nc2ccc(N3CCCC3=O)c(C)c2)c1 [CBK296733] | 89.1% | –
13 | COc1ccc(S(=O)(=O)NCCNC(=O)c2cc(-c3cccc(S(C)(=O)=O)c3)cnc2NCC2CC2)cc1 [CBK076425] | 94.6% | –
14 | CCC(=O)N1CCC(NC(=O)N(CCc2ccccn2)Cc2ccccc2)CC1 [CBK171898] | 90.9% | –
15 | CN(C)CCCNc1nc(-c2cccc(Cl)c2)nc2ccccc12 [CBK267284C] | 81.5% | –
16 | CCOC(=O)COc1ccc(/C=C2/SC(=S)N(c3cccc(C(=O)O)c3)C2=O)cc1 [CBK265632] | 107% | –
17 | CCN(CC)C(=O)NC(c1ccccc1OC)c1nccn1C (stereo not shown) [CBK283803] | 80.8% | –
18 | Cc1ccncc1C(=O)Nc1c(C)noc1C [CBK200393] | 80.7% | –
19 | CC(=O)NC1(CC(=O)N2CC[C@H]3NC(=O)COc4ccccc4C/C=C/C[C@H]3C2)CCCCC1 [CBK292117] | 91.3% | –
20 | Cn1nnc2cc(NCC3(CNC(=O)OC(C)(C)C)CC3)ccc21 [CBK304777] | 89.1% | –
21 | CCN(CC)CCN1C(=O)C(O)=C(C(=O)c2ccc3c(c2)OCO3)C1c1cccnc1 (stereo not shown) [CBK266465] | 99.6% | –
22 | Cc1cc(NCc2ccccc2)nc2ccccc12 [CBK262206] | 93.5% | –

Row | SMILES | viability at 28.5 h, 10 µM (% viability) | other results
23 | CC(=O)N1CCC2(CCCC[C@H]3CNCC[C@@H]3NC(=O)CNC2=O)CC1 [CBK292167] | 91.7% | –
24 | CN1CCc2c(sc3ncn4nc(-c5ccncc5)nc4c23)C1 [CBK288540] | 96.2% | –
25 | N#C/C(=C\c1cn(CCC(N)=O)c2ccccc12)c1nc2ccccc2[nH]1 [CBK267966] | 104% | –
26 | CC(Nc1ncnc2c1cnn2C)c1ccccc1 (stereo not shown) [CBK288093] | 106% | –
27 | O=c1[nH]c(-c2ccccc2)nc2c1CN(Cc1cccs1)CC2 [CBK282330] | 87.1% | –
28 | O=C(c1ccccc1)N1CCN(C(=O)c2ccco2)CC1 [CBK068314] | 96.6% | –
29 | O=C(CCN1CCc2ccccc2C1)Nc1cccc(F)c1 [CBK264282] | 103% | –
30 | CN(C)CCNC(=O)c1cccc(-c2cnc3[nH]c(=O)n(C4CCCCC4)c3n2)c1 [CBK064191] | 103% | –
31 | COc1ccc(F)c(CN(CC2CCNCC2)C(=O)Nc2c(C)noc2C)c1 [CBK049811] | 112% | –
32 | Cn1c(=O)oc2ccccc2c1=O [CBK015658] | 100% | –
33 | CN1CCN(C(=O)c2cnn(-c3ccccc3)c2NC(=O)c2ccc(F)cc2)CC1 [CBK265198] | 88.3% | –
34 | CCOCCn1c(N2CC(C)CC(C)C2)nc2c1c(=O)[nH]c(=O)n2C (stereo not shown) [CBK306200] | 83.6% | –
35 | C=CCNC(=O)N[C@H]1CCN2C(=O)c3ccccc3NC(=O)[C@@H]2C1 [CBK289568] | 102% | –
36 | CCc1c(C)nn(-c2ccccc2Cl)c1-c1ccccc1 [CBK016736] | 106% | –
37 | CCCc1ccc(S(=O)(=O)n2ccn(-c3ccc(Oc4ccccc4)cc3)c2=O)cc1 [CBK106648] | 107% | –
38 | Cn1c(=O)c2[nH]c(NCCc3ccc(Cl)cc3)nc2n(C)c1=O [CBK269794] | 92% | –
39 | O=[N+]([O-])c1ccc(OC/C=C2\Oc3ccc([N+](=O)[O-])cc3C2N2CCOCC2)cc1 (stereo not shown) [CBK262743] | – | viability at 28.5 h, 10 µM (% viability, bulk resorufin, single well): 91.8%
40 | CC(=O)Nc1ccc(-c2cncc(NC(C)CCCC(C)(C)O)n2)cc1 (stereo not shown) [CBK065894] | 91.1% | –
41 | CCC(C)(CC(=O)O)CC(=O)N1CCC2(C1)NCCc1c2[nH]c2ccccc12 (stereo not shown) [CBK047003] | 88.5% | –
42 | Cc1cc2c(cc1C)C(O)CC1(CCN(C(=O)c3ccco3)CC1)O2 (stereo not shown) [CBK282839] | 84% | –
43 | CN(C)C(=O)Oc1ccc2[nH]c3c(c2c1)CCNC31CCN(CCOc2ccccc2)C1 (stereo not shown) [CBK107679] | – | viability at 28.5 h, 10 µM: 95.1%
44 | COc1ccccc1-c1nccnc1OC [CBK106811] | 93.7% | –

Row | SMILES | viability at 28.5 h, 10 µM (% viability) | other results
45 | COc1cc(NC(=O)c2ccc3c(c2)C(=O)N(Cc2ccco2)C3=O)c(C(=O)O)cc1OC [CBK267436] | 105% | –
46 | Cc1c(S(=O)(=O)Nc2nnc(C(F)(F)F)s2)sc2ccc(Cl)cc12 [CBK062018] | 81.9% | –
47 | Cc1ccc2c(CC(=O)N(C)CCN(C)C)c(C)[nH]c2c1C [CBK282157] | 102% | –
48 | CCN(CC)Cc1cc(C(C)(C)C)oc1C(=O)O [CBK266013C] | 110% | –
49 | CC(CNC(=O)C(C)Oc1ccccc1)CN(C)C (stereo not shown) [CBK268658] | 94% | –
50 | CCN(CC)CCCCC1(C)SC(NC2CCCCCC2)=NC1=O (stereo not shown) [CBK113257] | 96.9% | –
51 | Cc1nc(N)sc1-c1csc(Nc2ncccn2)n1 [CBK263307B] | 108% | –
52 | CN(CC(=O)NCc1ccccc1OC1CCNC1)C(=O)c1ccccc1 (stereo not shown) [CBK028298T] | 96.9% | –
53 | CCCS(=O)(=O)Nc1nccnc1-c1ccc(Oc2ccccc2)cc1 [CBK050908] | 106% | –
54 | CC(C)NC(=O)CC[C@@H]1CNC(=O)[C@@H]2C[C@H](NC(=O)c3ccccc3)CN12 [CBK289002] | 90.9% | –
55 | O=C(Nc1cc(Oc2cncc(Cl)c2)cc([N+](=O)[O-])c1)c1nn2c(C(F)(F)F)cc(-c3cccs3)nc2c1Cl [CBK262585] | 94.9% | –
56 | O=c1cc(CO)oc(C(Nc2ccccn2)c2ccsc2)c1O (stereo not shown) [CBK296956] | 106% | –
57 | Cn1ccc2cc(NS(=O)(=O)c3ccc4[nH]c(=O)[nH]c(=O)c4c3)ccc21 [CBK286364] | 95.4% | –
58 | CCC(=O)N(Cc1cc2cc(C)ccc2nc1O)c1ccc(C)c(C)c1 [CBK265381] | 107% | –
59 | CC(=O)OCc1ccc(CN2CCCCCC2c2cc(C)no2)o1 (stereo not shown) [CBK283007] | 100% | –
60 | O=S(=O)(c1ccc(Cl)c(S(=O)(=O)N2CCOCC2)c1)c1ccc(Cl)c(S(=O)(=O)N2CCOCC2)c1 [CBK261369] | 112% | –
61 | COc1ccc(-c2cccc(C3CCCN(C(=O)c4ccc(F)cc4)C3)n2)cc1 (stereo not shown) [CBK286107] | 99.3% | –
62 | C=CCn1c(SCCC(=O)O)nc2c1c(=O)n(C)c(=O)n2C [CBK269573] | 79.3% | –
63 | COc1cc(OC)cc(-c2c(C)ncnc2OC)c1 [CBK306765] | 91.4% | –
64 | CCCCOc1ccc(C(=O)N(C)c2cnn(C)c2)c(O)c1 [CBK306167] | 89.5% | –
65 | CN1CCN(C(=O)C2CCCCC2C(=O)O)CC1 (stereo not shown) [CBK287092] | 86.4% | –
66 | COC(=O)c1ccc2oc(-c3cc(C(O)CNC(C)(C)C)ccc3OC(C)C)cc(=O)c2c1 (stereo not shown) [CBK009944C] | 85% | –

Row | SMILES | viability at 28.5 h, 10 µM (% viability) | other results
67 | N#Cc1cccc(CSc2nnc(-c3ccccc3O)n2Cc2ccccc2)c1 [CBK267395] | 85.8% | –
68 | N#CC1(NC(=O)c2ccn(-c3cccc(F)c3)n2)CCSC1 (stereo not shown) [CBK304566] | 106% | –
69 | Cc1ccc(CS(=O)(=O)NCCn2nc(C)c(C)c2C)cc1 [CBK281383] | 91.2% | –
70 | CCC(CC(=O)NC1CCCOC1)c1c[nH]c2ccccc12 (stereo not shown) [CBK282521] | 119% | –
71 | Cn1cc(C(O)CNC(=O)NCCc2csc3ccccc23)cn1 (stereo not shown) [CBK305219] | 95.2% | –
72 | CCN1CCN(c2ccc(N3C(=O)N[C@@H](C(C)C)C3=O)cc2)CC1 [CBK287953] | 87.5% | –
73 | c1ccc(CNC2CCc3[nH]c4ccccc4c3C2)cc1 (stereo not shown) [CBK091587T] | 106% | –
74 | CS(=O)(=O)N(CC(=O)Nc1ccccc1C(=O)N1CCCC1)c1cc(Cl)c(Cl)cc1Cl [CBK268826] | 106% | –
75 | O=C(CSCc1ccc(Cl)c(Cl)c1)Nc1cccnc1 [CBK268542] | 112% | –
76 | Sc1nnc(COc2ccccc2)n1/N=C/c1ccccn1 [CBK265279] | 102% | –
77 | CC(C)c1ccc(/C=C/C(=O)NCCc2c[nH]cn2)cc1 [CBK149629] | 101% | –
78 | O=C(O)C1C2C=CC3(CN(C4CCCCC4)C(=O)C13)O2 (stereo not shown) [CBK287248] | 84.8% | –
79 | CCCS(=O)(=O)n1c(=O)n(CCc2c[nH]c3ccccc23)c2ccccc21 [CBK106515] | 87.8% | –
80 | O=C(C1CCCC1)N1CCCCC1c1n[nH]cc1-c1ccncc1 (stereo not shown) [CBK283427] | 90.4% | –
81 | Cc1cnc(NC(=O)N2CCOC(c3ccc(F)cc3F)C2)s1 (stereo not shown) [CBK304126] | 88.5% | –
82 | Cn1ncc2c1CCCC2NC(=O)N(CCO)Cc1ccccc1 (stereo not shown) [CBK306293] | 86.1% | –
83 | CC(=O)Nc1ccc(OCC(O)CNC2CCCC2)cc1 (stereo not shown) [CBK267857C] | 87.6% | –
84 | Cc1ccnc2nc(C(=O)OC(C)C(=O)c3ccc4c(c3)CCC4)nn12 (stereo not shown) [CBK304528] | 89.5% | –
85 | Cn1c(=O)c2c(O)cc(=O)n(Cc3ccccc3)c2n(C)c1=O [CBK291245] | 81.5% | –
86 | O=c1c(N2CCCNCC2)nccn1CCOc1ccc(Oc2ccccc2)cc1 [CBK028615T] | 101% | –
87 | CC(=O)NC(c1nccs1)C1CCN(C(=O)C2CC2C)CC1 (stereo not shown) [CBK282232] | 101% | –
88 | CS(=O)(=O)c1ccc(-n2cc(-c3cccnc3)nn2)cc1 [CBK113061] | 104% | –

Reference: article PMC12040169 (PLOS Biology, 2025)
